From paper PMC6222891, “Bioinspired Honokiol Analogs and Their Evaluation for Activity on the Norepinephrine Transporter” (Molecules : A Journal of Synthetic Chemistry and Natural …, 2018)

Molecular target: T1, human norepinephrine transporter (hNET) (Homo sapiens, UniProt P23975)
T1 construct: expressed in transfected cells
Assay: fluorescent neurotransmitter transporter uptake assay (plate reader)
Assay type: cell-based
Conditions: HEK-hNET-hVMAT2-mCherry cells; compounds selected for follow-up assays
Method: Cell line: All screening was done in a line of human embryonic kidney cells stably expressing the human norepinephrine transporter and the vesicular monoamine transporter 2 (HEK-hNET- -hVMAT2-mCherry). Human VMAT2 expression, in addition to hNET, more fully recapitulates a neuronal phenotype in cell culture. Cells were imaged and fully characterized for functionality (Figure 1). […] Screening: Synthesized compounds were tested for interaction with NET via a three-step process. First, all compounds were tested using a commercially available fluorescent assay (neurotransmitter transport uptake kit, Molecular Devices, San Jose, CA, USA) for the assessment of plasmalemmal monoamine transport ability. Cells were plated in poly-D-lysine (PDL)-coated 96-well plates (Corning Inc., Corning, NY, USA) to 100% confluence. The following day, cell media (DMEM, 10% fetal bovine serum, 1% penicillin/streptomycin) was removed, and experimental media (Hank’s balanced salt solution, Sigma-Aldrich) was added. […] Plates were incubated for 1 h, then read on a fluorescent plate reader (Thermo Fisher). Experiments were conducted in triplicate. […] Cells were plated to confluence in 48-well PDL-coated plates the day prior to the experiment. For experiments, media was removed, cells were rinsed with phosphate buffered saline (PBS), and incubated with or without compounds or desipramine (10 nM to 10 μM, non-specific uptake measured by addition of 100 μM desipramine) for ten minutes at 37 °C. Dopamine (1 μM total concentration with 200 nM ^3H-dopamine tracer) was added and uptake proceeded for 10 min at 37 °C. Cells were then rinsed three times with PBS, lysed with 0.1 N NaOH, and measured via liquid scintillation counting (Beckman Coulter, Brea, CA, USA). Finally, each selected compound was visualized with high-content imaging using the Array Scan VTI HCS (Cellomics). Cells were seeded to 80% confluence in PDL-coated, glass-bottom 96-well plates. Media was removed and DMEM without phenol red with or without compounds or desipramine (10 nM to 10 μM) was added. Following a one-hour incubation, cells were imaged. Forty-nine contiguous fields per well were taken and total fluorescence in the green channel was reported.
Figure 1 Plate reader-based fluorescent assay using human NET in a validation assay of the scree-ning strategy using the known NET inhibitor desipramine as a positive control. […] (C) Finally, uptake was visualized using high content imaging with the Array Scan VTI HCS (Cellomics, Thermo Fisher Scientific, Waltham, MA, USA) to visualize nuclei (stained with DAPI), VMAT2-mCherry, and dye. All experiments were conducted in triplicate and analyzed with nonlinear regression analysis in GraphPad Prism (GraphPad Software, La Jolla, CA, USA). Scale: […].

T1 sequence (P23975 whole entry): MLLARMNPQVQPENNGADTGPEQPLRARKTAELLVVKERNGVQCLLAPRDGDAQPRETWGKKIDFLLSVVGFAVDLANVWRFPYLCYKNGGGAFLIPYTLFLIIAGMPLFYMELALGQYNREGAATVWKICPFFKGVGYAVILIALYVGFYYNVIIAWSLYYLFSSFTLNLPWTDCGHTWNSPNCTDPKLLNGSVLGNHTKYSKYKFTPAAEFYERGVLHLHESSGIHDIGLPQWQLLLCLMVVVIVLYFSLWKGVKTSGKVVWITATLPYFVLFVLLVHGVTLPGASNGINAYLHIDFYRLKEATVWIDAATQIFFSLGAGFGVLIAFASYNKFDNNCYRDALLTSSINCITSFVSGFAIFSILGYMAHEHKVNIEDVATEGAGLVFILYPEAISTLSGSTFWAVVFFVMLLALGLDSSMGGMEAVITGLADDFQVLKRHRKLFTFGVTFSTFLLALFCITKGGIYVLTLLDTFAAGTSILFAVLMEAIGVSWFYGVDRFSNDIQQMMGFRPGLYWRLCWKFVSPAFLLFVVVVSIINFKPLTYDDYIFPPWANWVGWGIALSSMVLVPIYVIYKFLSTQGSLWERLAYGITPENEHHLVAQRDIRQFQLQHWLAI

SMILES	modulation of transport activity in the fluorescent screen (ranking)
C=CCc1cc(Cc2cccc(CC=C)c2OC)ccc1OC [Compound C4a, 3,3′-Diallyl-2,4′-dimethoxy-diphenyl-methan]	most potent modulators of transport activity
C=CCc1cc(NC(C)=O)c(O)c(-c2ccc(OC)c(CC=C)c2)c1 [Compound H8]	most potent modulators of transport activity
C=CCc1ccc(O)c(-c2ccc(OC)c(CC=C)c2)c1 [Compound H11, 4′-O-methylhonokiol]	most potent modulators of transport activity
C=CCc1ccc(OC)c(-c2ccc(OC)c(CC=C)c2)c1 [Compound H16]	most potent modulators of transport activity
CCCc1ccc(OC)c(-c2ccc(OC)c(CCC)c2)c1 [Compound H20]	most potent modulators of transport activity
CC(C)(C)c1ccc(O)c(-c2cc(C(C)(C)C)ccc2O)c1 [Compound M6]	most potent modulators of transport activity
